# Experimental data reported in ChEMBL document CHEMBL1154164, “Design, synthesis, biological evaluation, and NMR studies of a new series of arylsulfones as selective and potent matrix metalloproteinase-12 inhibitors” (J Med Chem, 2009).
# Key:
# Collagenase 3 = Collagenase 3 (Homo sapiens, UniProt P45452); test: Inhibition of para-aminophenylmercuric acetate-activated human pro-MMP13 after 4 hrs by fluorimetry
# [1] = molecular target: T1, Macrophage metalloelastase (Homo sapiens, UniProt P39900); test: Inhibition of autoactivated human pro-MMP12 after 4 hrs by fluorimetry
# Interstitial collagenase = molecular target: T2, Interstitial collagenase (Homo sapiens, UniProt P03956); test: Inhibition of para-aminophenylmercuric acetate-activated human pro-MMP1 after 4 hrs by fluorimetry
# T2 sequence (P03956 whole entry): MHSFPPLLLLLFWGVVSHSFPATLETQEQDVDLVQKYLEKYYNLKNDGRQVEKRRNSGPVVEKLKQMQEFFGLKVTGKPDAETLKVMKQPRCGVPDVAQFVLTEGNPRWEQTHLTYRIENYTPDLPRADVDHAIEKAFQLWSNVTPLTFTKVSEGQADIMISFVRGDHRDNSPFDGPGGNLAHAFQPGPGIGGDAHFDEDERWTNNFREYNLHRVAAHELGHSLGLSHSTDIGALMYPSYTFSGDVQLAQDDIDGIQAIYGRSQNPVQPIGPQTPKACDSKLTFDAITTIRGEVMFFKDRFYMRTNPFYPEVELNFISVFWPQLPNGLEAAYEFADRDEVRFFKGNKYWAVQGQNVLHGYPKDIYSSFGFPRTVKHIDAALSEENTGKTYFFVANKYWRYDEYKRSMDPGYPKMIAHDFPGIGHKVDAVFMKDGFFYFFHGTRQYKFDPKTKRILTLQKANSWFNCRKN
# [2] = molecular target: 72 kDa type IV collagenase (Homo sapiens, UniProt P08253); test: Inhibition of para-aminophenylmercuric acetate-activated human recombinant pro-MMP2 catalytic domain after 4 hrs by fluorimetry
# [3] = molecular target: Matrix metalloproteinase-16 (Homo sapiens, UniProt P51512); test: Inhibition of human recombinant pro-MMP16 catalytic domain after 4 hrs by fluorimetry
# Neutrophil collagenase = Neutrophil collagenase (Homo sapiens, UniProt P22894); test: Inhibition of para-aminophenylmercuric acetate-activated human pro-MMP8 after 4 hrs by fluorimetry
# Stromelysin-1 = Stromelysin-1 (Homo sapiens, UniProt P08254); test: Inhibition of trypsin activated human pro-MMP3 after 4 hrs by fluorimetry
# [4] = molecular target: Matrix metalloproteinase-14 (Homo sapiens, UniProt P50281); test: Inhibition of human recombinant pro-MMP14 catalytic domain after 4 hrs by fluorimetry
# [5] = molecular target: Matrix metalloproteinase-9 (Homo sapiens, UniProt P14780); test: Inhibition of para-aminophenylmercuric acetate-activated human recombinant pro-MMP9 catalytic domain after 4 hrs by fluorimetry
# [6] = molecular target: T1, Macrophage metalloelastase; test: Inhibition of autoactivated human pro-MMP12 after 1 hr preincubation by fluorimetry
# [7] = molecular target: T1, Macrophage metalloelastase; test: Inhibition of autoactivated human pro-MMP12 after 30 mins preincubation by fluorimetry
# Sequence of 72 kDa type IV collagenase (P08253 whole entry, the tested form may be a part): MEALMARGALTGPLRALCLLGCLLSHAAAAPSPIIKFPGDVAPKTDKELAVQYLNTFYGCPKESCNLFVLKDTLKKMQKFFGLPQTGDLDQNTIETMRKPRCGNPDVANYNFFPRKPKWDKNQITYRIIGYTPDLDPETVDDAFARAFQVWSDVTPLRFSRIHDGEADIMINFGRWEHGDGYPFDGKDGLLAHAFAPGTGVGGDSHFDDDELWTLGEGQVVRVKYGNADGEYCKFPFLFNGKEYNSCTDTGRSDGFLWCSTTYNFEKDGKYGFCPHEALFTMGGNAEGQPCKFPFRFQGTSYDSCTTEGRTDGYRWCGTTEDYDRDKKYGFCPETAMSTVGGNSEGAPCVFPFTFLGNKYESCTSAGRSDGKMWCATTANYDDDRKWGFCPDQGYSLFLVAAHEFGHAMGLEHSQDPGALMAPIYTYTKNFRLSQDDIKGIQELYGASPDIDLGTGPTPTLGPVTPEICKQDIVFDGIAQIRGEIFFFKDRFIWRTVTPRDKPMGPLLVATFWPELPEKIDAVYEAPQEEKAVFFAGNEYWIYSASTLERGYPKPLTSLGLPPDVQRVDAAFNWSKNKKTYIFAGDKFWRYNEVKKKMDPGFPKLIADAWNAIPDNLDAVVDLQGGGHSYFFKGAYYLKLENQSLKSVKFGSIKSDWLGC
# Sequence of Neutrophil collagenase (P22894 whole entry): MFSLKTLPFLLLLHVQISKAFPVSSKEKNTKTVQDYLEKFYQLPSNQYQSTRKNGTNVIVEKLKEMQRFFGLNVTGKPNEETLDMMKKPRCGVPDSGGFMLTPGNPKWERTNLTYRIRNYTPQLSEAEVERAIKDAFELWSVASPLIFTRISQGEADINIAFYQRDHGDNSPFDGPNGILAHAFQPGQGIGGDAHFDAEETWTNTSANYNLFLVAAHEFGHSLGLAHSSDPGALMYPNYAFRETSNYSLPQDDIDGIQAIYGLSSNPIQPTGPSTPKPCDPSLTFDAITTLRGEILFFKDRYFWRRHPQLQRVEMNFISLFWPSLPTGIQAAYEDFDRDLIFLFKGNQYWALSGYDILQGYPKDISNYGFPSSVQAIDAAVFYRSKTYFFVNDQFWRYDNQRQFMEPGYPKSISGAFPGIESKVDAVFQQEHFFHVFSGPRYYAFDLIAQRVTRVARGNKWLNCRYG
# T1 sequence (P39900 whole entry): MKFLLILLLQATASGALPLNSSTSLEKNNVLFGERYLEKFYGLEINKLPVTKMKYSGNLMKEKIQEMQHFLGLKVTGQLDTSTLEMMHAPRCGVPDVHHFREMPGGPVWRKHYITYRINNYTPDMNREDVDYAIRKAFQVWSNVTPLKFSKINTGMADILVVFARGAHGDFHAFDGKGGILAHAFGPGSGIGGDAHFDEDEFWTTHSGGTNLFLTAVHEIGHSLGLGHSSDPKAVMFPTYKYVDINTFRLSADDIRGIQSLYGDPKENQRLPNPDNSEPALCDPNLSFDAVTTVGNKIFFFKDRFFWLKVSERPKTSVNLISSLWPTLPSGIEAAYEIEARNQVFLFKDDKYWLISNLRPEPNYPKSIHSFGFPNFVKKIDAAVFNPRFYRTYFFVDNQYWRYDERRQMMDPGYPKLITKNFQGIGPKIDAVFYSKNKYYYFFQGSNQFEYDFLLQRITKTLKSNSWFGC
# Sequence of Matrix metalloproteinase-16 (P51512 whole entry, the tested form may be a part): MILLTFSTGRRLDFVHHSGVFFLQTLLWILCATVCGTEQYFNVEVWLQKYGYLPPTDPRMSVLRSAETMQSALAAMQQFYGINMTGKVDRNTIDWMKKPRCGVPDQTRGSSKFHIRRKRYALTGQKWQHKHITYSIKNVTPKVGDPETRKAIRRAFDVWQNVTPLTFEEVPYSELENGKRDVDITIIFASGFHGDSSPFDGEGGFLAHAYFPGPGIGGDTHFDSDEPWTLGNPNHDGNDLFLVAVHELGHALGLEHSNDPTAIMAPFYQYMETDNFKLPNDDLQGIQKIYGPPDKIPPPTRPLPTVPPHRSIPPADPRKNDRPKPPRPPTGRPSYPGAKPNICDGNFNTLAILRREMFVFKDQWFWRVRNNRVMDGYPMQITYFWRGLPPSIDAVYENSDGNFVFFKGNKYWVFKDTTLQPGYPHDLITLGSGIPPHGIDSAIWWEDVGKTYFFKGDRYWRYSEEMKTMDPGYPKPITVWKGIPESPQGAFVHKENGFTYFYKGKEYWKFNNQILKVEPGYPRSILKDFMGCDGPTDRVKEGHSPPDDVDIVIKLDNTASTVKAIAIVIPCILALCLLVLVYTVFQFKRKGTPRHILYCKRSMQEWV
# Sequence of Matrix metalloproteinase-9 (P14780 whole entry, the tested form may be a part): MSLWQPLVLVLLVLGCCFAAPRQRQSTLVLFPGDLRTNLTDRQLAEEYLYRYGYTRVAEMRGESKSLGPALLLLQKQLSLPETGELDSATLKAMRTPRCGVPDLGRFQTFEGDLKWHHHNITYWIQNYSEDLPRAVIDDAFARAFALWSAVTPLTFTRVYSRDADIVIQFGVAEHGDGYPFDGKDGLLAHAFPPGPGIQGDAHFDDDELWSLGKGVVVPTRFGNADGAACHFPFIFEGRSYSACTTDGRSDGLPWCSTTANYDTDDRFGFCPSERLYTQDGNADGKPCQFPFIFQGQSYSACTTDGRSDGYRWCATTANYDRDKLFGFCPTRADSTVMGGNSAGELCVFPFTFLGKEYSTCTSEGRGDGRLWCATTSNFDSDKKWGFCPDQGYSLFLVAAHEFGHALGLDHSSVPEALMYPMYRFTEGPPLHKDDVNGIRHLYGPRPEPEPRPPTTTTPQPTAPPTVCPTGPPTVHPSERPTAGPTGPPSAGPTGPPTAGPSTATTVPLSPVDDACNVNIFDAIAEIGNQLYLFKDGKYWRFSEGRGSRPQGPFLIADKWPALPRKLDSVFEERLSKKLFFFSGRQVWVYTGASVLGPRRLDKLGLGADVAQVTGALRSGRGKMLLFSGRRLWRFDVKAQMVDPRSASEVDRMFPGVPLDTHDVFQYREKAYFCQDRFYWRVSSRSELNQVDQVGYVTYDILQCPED
# Sequence of Stromelysin-1 (P08254 whole entry, the tested form may be a part): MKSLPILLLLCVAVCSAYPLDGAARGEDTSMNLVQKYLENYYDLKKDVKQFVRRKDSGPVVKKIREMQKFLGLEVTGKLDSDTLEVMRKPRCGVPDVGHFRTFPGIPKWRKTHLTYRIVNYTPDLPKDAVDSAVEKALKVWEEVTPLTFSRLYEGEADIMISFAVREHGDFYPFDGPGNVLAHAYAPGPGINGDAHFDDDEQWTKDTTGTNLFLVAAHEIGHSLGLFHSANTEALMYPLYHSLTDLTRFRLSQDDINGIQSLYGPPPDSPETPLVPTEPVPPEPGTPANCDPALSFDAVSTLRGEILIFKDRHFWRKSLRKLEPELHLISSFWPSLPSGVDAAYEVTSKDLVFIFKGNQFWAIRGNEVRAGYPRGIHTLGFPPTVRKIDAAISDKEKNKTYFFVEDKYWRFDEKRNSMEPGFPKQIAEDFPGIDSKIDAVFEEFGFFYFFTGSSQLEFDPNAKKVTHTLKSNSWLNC
IC50 (Collagenase 3),IC50 [1],IC50 (Interstitial collagenase),IC50 [2],IC50 [3],IC50 (Neutrophil collagenase),IC50 (Stromelysin-1),IC50 [4],IC50 [5],SMILES,IC50 [6],IC50 [7]
4.1 nM,0.2 nM,490 nM,0.8 nM,51 nM,–,–,–,–,CC(C)ON([C@@H](C(=O)NO)C(C)C)S(=O)(=O)c1ccc(-c2ccccc2)cc1,–,–
260 nM,70 nM,28000 nM,100 nM,1200 nM,87 nM,4000 nM,1300 nM,930 nM,COc1ccc(-c2ccc(S(=O)(=O)c3ccccc3C(=O)NO)cc2)cc1,–,–
260 nM,1500 nM,23000 nM,510 nM,4300 nM,290 nM,74000 nM,5400 nM,7300 nM,O=C(O)Cc1ccccc1S(=O)(=O)c1ccc(-c2ccccc2)cc1,–,–
78 nM,140 nM,4400 nM,47 nM,730 nM,99 nM,7500 nM,740 nM,730 nM,COc1ccc(-c2ccc(S(=O)(=O)c3ccccc3CC(=O)O)cc2)cc1,150 nM,170 nM
62 nM,6 nM,29000 nM,38 nM,220 nM,370 nM,23000 nM,940 nM,310 nM,O=C(Cc1ccccc1S(=O)(=O)c1ccc(-c2ccccc2)cc1)NO,–,–
1400 nM,590 nM,73000 nM,1300 nM,5100 nM,1000 nM,45000 nM,8300 nM,7700 nM,O=C(NO)c1ccccc1S(=O)(=O)c1ccc(-c2ccccc2)cc1,–,–
7900 nM,410 nM,> 100000 nM,1500 nM,18000 nM,2000 nM,54000 nM,10000 nM,24000 nM,CC(C)ON([C@@H](C(=O)O)C(C)C)S(=O)(=O)c1ccc(-c2ccccc2)cc1,–,–
28000 nM,14000 nM,> 100000 nM,35000 nM,31000 nM,72000 nM,> 50000 nM,25000 nM,24000 nM,COc1ccc(S(=O)(=O)c2ccccc2C(=O)NO)cc1,–,–
2700 nM,1200 nM,> 10000 nM,1200 nM,1300 nM,620 nM,27000 nM,1300 nM,690 nM,O=C(NO)c1ccccc1S(=O)(=O)c1ccc(Oc2ccccc2)cc1,–,–
20000 nM,5800 nM,> 200000 nM,9900 nM,110000 nM,9200 nM,60000 nM,120000 nM,51000 nM,C[S+]([O-])c1ccc(Oc2ccc(S(=O)(=O)c3ccccc3C(=O)NO)cc2)cc1 (stereo not given),–,–
940 nM,380 nM,> 10000 nM,710 nM,6500 nM,1200 nM,> 10000 nM,8100 nM,420 nM,COc1ccc(Oc2ccc(S(=O)(=O)c3ccccc3CC(=O)O)cc2)cc1,–,–
2700 nM,920 nM,> 10000 nM,1300 nM,6000 nM,1900 nM,22000 nM,4000 nM,410 nM,COc1ccc(Oc2ccc(S(=O)(=O)c3ccccc3C(=O)NO)cc2)cc1,–,–
25 nM,4.8 nM,8300 nM,9.7 nM,130 nM,120 nM,1600 nM,710 nM,94 nM,COc1ccc(-c2ccc(S(=O)(=O)c3ccccc3CC(=O)NO)cc2)cc1,–,–
55000 nM,89000 nM,> 100000 nM,58000 nM,93000 nM,74000 nM,> 100000 nM,77000 nM,> 100000 nM,COc1ccc(S(=O)(=O)c2ccccc2CC(=O)O)cc1,–,–
74 nM,6 nM,12000 nM,73 nM,470 nM,390 nM,5600 nM,860 nM,340 nM,CC(C(=O)NO)c1ccccc1S(=O)(=O)c1ccc(-c2ccccc2)cc1 (racemic),–,–
1800 nM,1900 nM,51000 nM,2400 nM,6300 nM,1900 nM,> 100000 nM,18000 nM,20000 nM,CC(C(=O)O)c1ccccc1S(=O)(=O)c1ccc(-c2ccccc2)cc1 (racemic),–,–
190 nM,310 nM,> 10000 nM,190 nM,1100 nM,290 nM,8000 nM,2100 nM,3000 nM,COc1ccc(-c2ccc(S(=O)(=O)c3ccccc3C(C)C(=O)O)cc2)cc1 (racemic),–,–

SMILES,IC50 (Collagenase 3),IC50 [1],IC50 (Interstitial collagenase),IC50 [2],IC50 [3],IC50 (Neutrophil collagenase),IC50 (Stromelysin-1),IC50 [4],IC50 [5],IC50 [6],IC50 [7]
COc1ccc(S(=O)(=O)c2ccccc2CC(=O)NO)cc1,84 nM,32 nM,4100 nM,230 nM,130 nM,280 nM,730 nM,200 nM,98 nM,–,–
COc1ccc(Oc2ccc(S(=O)(=O)c3ccccc3CC(=O)NO)cc2)cc1,4.1 nM,0.2 nM,3500 nM,3.5 nM,32 nM,5.1 nM,21 nM,33 nM,0.8 nM,0.85 nM,0.89 nM
COc1ccc(-c2ccc(S(=O)(=O)c3ccccc3C(C)C(=O)NO)cc2)cc1 (racemic),12 nM,2.7 nM,> 10000 nM,7 nM,150 nM,54 nM,1400 nM,360 nM,69 nM,–,–
